Measurements: patent US7182943B2, “Method and system for modulation of microbial cell characteristics” (Université Laval, priority 2002, dated 2007)
Read-outs that look alike come from different tables or passages of the source. No end group written: not given here.

Assays:
B. longum [1] = assay: Antibiotic sensitivity by the disc assay method, B. longum cells; assay type: cell-based, Bifidobacterium longum ATCC 15707; details: after approximately 6 days of continuous culture, tolerance increased with time
Experimental: (§1) FIG. 1 : Tolerance to kanamycin of L. diacetylactis and B. longum cells produced during continuous immobilized cell fermentation in reactors R1 and R2 for different culture times. J and R indicate the culture day and reactor, respectively. The antibiotic sensitivity was tested by the disc assay method.
(§2) Bifidobacterium longum ATCC 15707 and Lactococcus lactis ssp lactis biovar diacetylactis were immobilized separately in κ-carrageenan/locust bean gum gel beads with a 2% (v/v) inoculum, as described previously (Lamboley et al. 1997). Beads with diameters in the range 1–2 mm were selected by wet sieving and used for fermentation experiments. This mixed gel is a good matrix entrapment for temperature-sensitive cells, with good mechanical properties for long-term stability during continuous culture with immobilized cells (Lamboley et al., 1997; 1999; 2001). The κ-carrageenan/locust bean gum gel is stabilized by potassium and other cations present in the culture broth. […] Other gel compositions can also be used for the immobilization matrix, such as polysaccharides and proteins, with other chemical products.
(§3) Reactor R1 was inoculated with 15% (v/v) of each of the two types of gel beads containing a pure culture of the two strains which have been pre-colonized during a 16 h pH-controlled batch culture. […] The reactors in series were continuously fed with MRS medium (de Man et al., 1960) supplemented with KCl 0.15 M to ensure bead mechanical stability. Medium feed flow rate was set at 240 ml/h during the 17-day culture and pH was controlled at 6.0 by addition of NH4OH 6N. The bioreactor was held at temperatures varying between 32–37° C. and purged with CO2 to maintain anaerobic conditions, with mixing set at 120 rpm.
(§4) FIG. 1 and Table 1 illustrate the effect of different antibiotics on the increase of L. diacetylactis and B. longum tolerance as a function of culture time.

L. diacetylactis = assay: Antibiotic tolerance by the disc assay method, L. diacetylactis cells; assay type: cell-based, Lactococcus lactis ssp lactis biovar diacetylactis; details: after approximately 6 days of continuous culture, tolerance increased with time
Experimental: as §1, §2, §3, §4

B. longum [2] = details: 30000 ppm H2O2, 1 min at 37° C.
Experimental: FIG. 4: B. longum survival to hydrogen peroxyde (H2O2) of control (free-cell batch culture) and experimental (continuous two-stage immobilized cells fermentation) cultures. […] A bacterial sample (1 ml) was incubated with 9 ml H2O2 solution at final concentrations of 0, 2000, 10000, 20000, or 30000 ppm H2O2, for 1 min at 37° C. After incubation, 0.1 ml of test sample was added to 9.9 ml catalase 2% to stop the reaction, and cell survival was determined by the pour plate method.
The resistance of cells in the effluents from R1 and R2 to different stresses was tested as a function of fermentation time and compared to a control treatment. Control cells were produced during free-cell batch fermentation in MRS medium inoculated at 2% and incubated for 18 h at 37° C. with no pH control.

Molecule	Tolerance of cells produced with immobilized cell technology compared to the control (B. longum [1])	Tolerance of cells produced with immobilized cell technology compared to the control (L. diacetylactis)	Cell survival (B. longum [2]; B. longum cells produced with ICT) [%]	Cell survival (B. longum [2]; B. longum control cells (free-cell batch culture)) [%]
CN[C@H](CC(C)C)C(=O)N[C@H]1C(=O)N[C@@H](CC(N)=O)C(=O)N[C@H]2C(=O)N[C@H]3C(=O)N[C@H](C(=O)N[C@H](C(=O)O)c4cc(O)cc(O)c4-c4cc3ccc4O)[C@H](O)c3ccc(c(Cl)c3)Oc3cc2cc(c3O[C@@H]2O[C@H](CO)[C@@H](O)[C@H](O)[C@H]2O[C@H]2C[C@](C)(N)[C@H](O)[C@H](C)O2)Oc2ccc(cc2Cl)[C@H]1O [Vancomycin]	increased tolerance	more tolerant		
OO [H2O2, hydrogen peroxide]			0.1	0.003
Nisin Z (ITSISLCTPGCKTGALMGCNMKTATCNCSIHVSK; also: lantibiotic nisin-Z: thioether rings and dehydro residues not placed; UniProt P29559 24-57, looked up) [bacteriocin tested among the antibiotics in the disc assay]	increased tolerance	more tolerant		
CC[C@H]1OC(=O)[C@H](C)[C@@H](O[C@H]2C[C@@](C)(OC)[C@@H](O)[C@H](C)O2)[C@H](C)[C@@H](O[C@@H]2O[C@H](C)C[C@H](N(C)C)[C@H]2O)[C@](C)(O)C[C@@H](C)C(=O)[C@H](C)[C@@H](O)[C@]1(C)O [Erythromycin]	increased tolerance			
O=C(N[C@H](CO)[C@H](O)c1ccc([N+](=O)[O-])cc1)C(Cl)Cl [Chloramphenicol]	increased tolerance	more tolerant		
CN(C)[C@@H]1C(=O)C(C(N)=O)=C(O)[C@@]2(O)C(=O)C3=C(O)c4c(O)cccc4[C@@](C)(O)[C@H]3C[C@@H]12 [tetracyclin]	increased tolerance	more tolerant		
